Our source for the EC50 and ED50 values is ChEMBL document CHEMBL1142017, “Structure-activity relationships and sub-type selectivity in an oxabicyclic estrogen receptor alpha/beta agonist scaffold” (Bioorg Med Chem Lett, 2005).

In experiment [1] the target is T1, Estrogen receptor beta (Homo sapiens, UniProt Q92731).
Description: (§1) In vitro agonist activity for estrogen receptor beta expressed in COS-1 cells
The target of another experiment is T2, Estrogen receptor (Homo sapiens, UniProt P03372).
T2 sequence (P03372 whole entry): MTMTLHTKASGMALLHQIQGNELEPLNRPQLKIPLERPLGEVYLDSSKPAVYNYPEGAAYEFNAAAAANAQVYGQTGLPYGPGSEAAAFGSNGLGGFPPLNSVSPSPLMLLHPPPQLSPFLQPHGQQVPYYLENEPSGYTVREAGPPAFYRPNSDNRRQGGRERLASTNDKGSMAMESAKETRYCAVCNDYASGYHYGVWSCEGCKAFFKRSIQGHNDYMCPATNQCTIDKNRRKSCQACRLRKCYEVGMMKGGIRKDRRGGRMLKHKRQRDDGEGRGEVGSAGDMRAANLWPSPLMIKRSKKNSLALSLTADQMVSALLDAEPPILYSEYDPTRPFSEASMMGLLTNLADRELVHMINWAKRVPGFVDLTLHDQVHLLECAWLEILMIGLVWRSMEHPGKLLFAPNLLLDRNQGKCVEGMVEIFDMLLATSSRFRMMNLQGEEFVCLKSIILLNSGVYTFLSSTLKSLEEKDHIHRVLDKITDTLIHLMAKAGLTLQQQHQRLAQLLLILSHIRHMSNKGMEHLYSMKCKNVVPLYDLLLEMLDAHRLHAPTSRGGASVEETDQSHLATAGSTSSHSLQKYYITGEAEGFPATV

The target of experiment [2] is T3, Estrogen receptor (Rattus norvegicus) (UniProt P06211+Q62986). Nature of the experiment: Effect on uterine wet weight in ovariectomized female rats. The format is functional.
Experiment [3] concerns the target T1, Estrogen receptor beta. As to conditions: cos-1.
Description: as §1
Experiment [4] concerns the target T3, Estrogen receptor (Rattus norvegicus). The experiment can be described thus: Effect on uterine wet weight in ovariectomized female rats after 30 mg/kg oral gavage dose. The format is functional, organism-based. Set-up: dose 30 mg/kg.

T1 sequence (Q92731 whole entry): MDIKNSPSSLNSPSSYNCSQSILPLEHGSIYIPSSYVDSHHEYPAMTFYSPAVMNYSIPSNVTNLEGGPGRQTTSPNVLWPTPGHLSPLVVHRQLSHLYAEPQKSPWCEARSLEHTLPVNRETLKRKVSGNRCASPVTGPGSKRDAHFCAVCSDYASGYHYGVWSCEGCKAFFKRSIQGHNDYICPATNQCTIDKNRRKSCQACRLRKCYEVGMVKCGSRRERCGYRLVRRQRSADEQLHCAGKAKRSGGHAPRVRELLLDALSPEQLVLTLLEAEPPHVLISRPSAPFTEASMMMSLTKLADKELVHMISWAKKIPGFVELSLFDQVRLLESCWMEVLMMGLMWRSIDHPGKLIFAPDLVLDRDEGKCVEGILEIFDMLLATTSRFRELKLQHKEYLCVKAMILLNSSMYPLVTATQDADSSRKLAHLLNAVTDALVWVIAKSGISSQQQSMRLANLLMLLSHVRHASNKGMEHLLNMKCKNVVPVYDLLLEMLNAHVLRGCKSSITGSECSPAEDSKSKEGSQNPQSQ

For the compound `CC1=CC[C@@]2(CO)CO[C@@H](c3ccc(O)c(O)c3)[C@@H]1C2` (racemic), the EC50 turned out to be 3160 nM on Estrogen receptor beta [1] and 2410 nM at Estrogen receptor. In the same order, the values of `CC1=CC[C@@]2(CO)CO[C@@H](c3ccc(O)cc3F)[C@@H]1C2` (stereo in doubt; (-)-30) are 3.1 nM and 19 nM. In the same order, the values of `CC1=CC[C@@]2(CO)CO[C@@H](c3ccc(O)c(F)c3)[C@@H]1C2` (stereo in doubt; (-)-28) are 57 nM and 254 nM.

In the case of `CC1=CC[C@@]2(O)CO[C@@H](c3ccc(O)cc3)[C@@H]1C2(C)C` (racemic), the results for the EC50 on Estrogen receptor beta [1] and at Estrogen receptor were 24 nM and 59 nM, respectively. In the same order, the values of `CC1=CC[C@@]2(CO)CO[C@@H](c3cc(C)c(O)c(C)c3)[C@@H]1C2` (racemic) are 2830 nM and 743 nM. For the compound `CC1=CC[C@@]2(CO)CO[C@@H](c3ccc(O)cc3F)[C@@H]1C2` (racemic), the EC50 at Estrogen receptor beta [1] is 10 nM; on Estrogen receptor, 39 nM. In the same order, the values of `CC1=CC[C@@]2(CO)CO[C@@H](c3ccc(O)cc3C)[C@@H]1C2` (racemic) are 79 nM and 92 nM. For `CC1=CC[C@@]2(CO)CO[C@@H](c3ccc(O)cc3Cl)[C@@H]1C2` (stereo in doubt; (-)-26) [listing 1 of 2 here], the ED50 in experiment [2] came out at 3.44 mg/kg/day. For `CC1=CC[C@]2(O)C[C@H]1[C@H](c1ccc(O)cc1F)OC2(C)C` (racemic), the EC50 at Estrogen receptor beta [1] was found to be 1.4 nM; at Estrogen receptor it was 1.1 nM. In the same order, the values of `CC1=CC(C)(C)[C@@]2(O)CO[C@@H](c3ccc(O)cc3Cl)[C@@H]1C2` (racemic) are 25 nM and 21 nM. In the same order, the values of `CC1=CC[C@@]2(CO)CO[C@@H](c3ccc(O)cc3Cl)[C@@H]1C2` (stereo in doubt; (-)-26) [listing 2 of 2 here] are 6.1 nM and 18 nM. In the same order, the values of `CC1=CC[C@@]2(CO)CO[C@@H](c3ccc(O)cc3Cl)[C@@H]1C2` (racemic) are 5.3 nM and 11 nM. Regarding `CC1=CC[C@@]2(CO)CO[C@@H](c3ccc(O)c(Cl)c3)[C@@H]1C2` (racemic), the EC50 on Estrogen receptor beta [1] stood at 197 nM; on Estrogen receptor, 36 nM. In the same order, the values of `CC1=CC[C@@]2(CO)CO[C@@H](c3ccc(O)c(C)c3)[C@@H]1C2` (racemic) are 305 nM and 137 nM. For `CC1=CC[C@@H]2C[C@H]1[C@H](c1ccc(O)cc1)OC2(C)C` (stereo in doubt) the same measures were 195 nM and 211 nM.

As to `CC1=CC[C@]2(O)C[C@H]1[C@H](c1ccc(O)c(F)c1)OC2(C)C` (racemic), the EC50 at Estrogen receptor beta [1] was 7.2 nM; at Estrogen receptor it was 0.6 nM. Take `COc1cc([C@@H]2OC[C@]3(CO)CC=C(C)[C@H]2C3)ccc1O` (racemic): the EC50 at Estrogen receptor beta [1] is 3050 nM; at Estrogen receptor, 1980 nM. For `CC1=CC[C@]2(O)C[C@H]1[C@H](c1ccc(O)cc1)OC2(C)C` (racemic) the same measures were 9.2 nM and 1.6 nM. For `CC1=CC[C@@H]2C[C@H]1[C@H](c1ccc(O)c(C)c1)OC2(C)C` (stereo in doubt; (+)-32) the same measures were 318 nM and 143 nM.

For the compound `CC1=CC[C@@]2(CO)CO[C@@H](c3ccc(O)cc3Cl)[C@]1(C)C2` (racemic), the EC50 at Estrogen receptor beta [1] came out at 67 nM; at Estrogen receptor, 43 nM. Turning to `CC1=CC(C)(C)[C@@]2(O)CO[C@@H](c3ccc(O)cc3)[C@@H]1C2` (racemic), the EC50 at Estrogen receptor beta [1] amounted to 183 nM; on Estrogen receptor it was 141 nM. For `CC1=CC[C@@]2(CO)CO[C@@H](c3ccc(O)c(F)c3)[C@@H]1C2` (stereo in doubt; (+)-27), the figures for the EC50 at Estrogen receptor beta [1] and at Estrogen receptor were 40 nM and 2.6 nM, respectively.

For the compound `CC1=CC[C@@]2(CO)CO[C@@H](c3ccc(O)c(Br)c3)[C@@H]1C2` (racemic), the concentration for a half-maximal effect (EC50) was 485 nM at Estrogen receptor beta [1] and 336 nM at Estrogen receptor. `CC1=CC[C@@H]2C[C@H]1[C@H](c1ccc(O)c(C)c1)OC2(C)C` (stereo in doubt): the EC50 on Estrogen receptor beta [3] amounted to 318 nM; on Estrogen receptor, 218 nM.

Consider `CC1=CC[C@@]2(CO)CO[C@@H](c3ccc(O)cc3)[C@]1(C)C2` (racemic), for which the EC50 at Estrogen receptor beta [1] stood at 39 nM; on Estrogen receptor, 203 nM. In the same order, the values of `CC1=CC[C@@]2(CO)CO[C@@H](c3ccc(O)c(F)c3)[C@]1(C)C2` (racemic) are 6 nM and 68 nM.

In the case of `CC1=CC[C@@]2(CO)CO[C@@H](c3ccc(O)cc3F)[C@@H]1C2` (stereo in doubt; (+)-29), the EC50 at Estrogen receptor beta [1] came out at 180 nM; on Estrogen receptor, 21 nM. For `CC1=CC[C@@]2(CO)CO[C@@H](c3ccc(O)cc3F)[C@]1(C)C2` (racemic) the same measures were 12 nM and 50 nM.

With `CC1=CC[C@@]2(CO)CO[C@@H](c3ccc(O)cc3O)[C@@H]1C2` (racemic), the EC50 on Estrogen receptor beta [1] is 275 nM; on Estrogen receptor it was 173 nM. For `CC1=CC[C@@]2(CO)CO[C@@H](c3ccc(O)c(F)c3)[C@@H]1C2` (racemic) the same measures were 25 nM and 4.6 nM. For `CC1=CC[C@]2(O)C[C@H]1[C@H](c1ccc(O)cc1Cl)OC2(C)C` (racemic) the same measures were 6 nM and 1 nM. In the same order, the values of `CC1=CC[C@@H]2C[C@H]1[C@H](c1ccc(O)cc1)OC2(C)C` (stereo in doubt; (+)-31) are 418 nM and 203 nM. Turning to `C[C@]12CC[C@@H]3c4ccc(OS(=O)(=O)O)cc4CC[C@H]3[C@@H]1CCC2=O`, the median effective dose (ED50) in experiment [4] is 0.16 mg/kg/day.

`CC1=CC[C@@]2(CO)CO[C@@H](c3ccc(O)cc3Cl)[C@@H]1C2` (stereo in doubt; (+)-25): the EC50 on Estrogen receptor beta [1] stood at 46 nM; on Estrogen receptor, 138 nM.
